Measured values from US20210371413A1, “POLYCYCLIC AMIDES AS CYTOTOXIC AGENTS” (FEMTOGENIX LIMITED, priority 2018, published 2021).

Tests used:
SW48 = test: In vitro cell-killing, MTT assay, SW48; assay type: cell-based; conditions: Homo sapiens, SW48, 72 h, read-out: In vitro cell-killing (IC50), Cytotoxicity (72 hours)
Protocol: Tumor cell lines were maintained in RPMI1640 medium supplemented with 10% heat-inactivated fetal bovine serum, 2 mM L-glutamine and 1 mM sodium pyruvate. 1800 cells per well were seeded in a volume of 180 μl in a 96-well flat bottom polystyrene plate. The cells were allowed to adhere overnight at 37° C. in a CO2 incubator. Ligands were initially formulated in DMSO, and stocks stored at −80° C. They were then further formulated at lox concentration in RPMI1640 medium. 20 ul of diluted samples were added into each treatment well. On each plate, blank wells with no cells, and untreated wells containing cells, were included. Plates were then cultured at 37° C. in a CO2 incubator for 72 hrs. Cytotoxicity was evaluated using a tetrazolium salt-based assay, the MTT assay. After 72 hours, the supernatant was removed from each well and 200 μl of a sterile filtered 500 μg/ml MTT solution in water added to each well. […] The plate was then read on a plate reader at 540 nm, and percentage cell survival calculated as follows: ((mean absorbance treated wells at concentration x−mean absorbance blank wells)+(mean absorbance untreated wells at concentration x−mean absorbance blank wells))×100. Data were plotted as concentration in nM vs. % cell survival in Microsoft Excel, and IC50 values (concentration where cell survival is reduced by a half) were determined from the graph.

DS3 DNA fragment = test: DNA footprinting, DS3 DNA fragment; assay type: binding
Protocol: The DNA sequence selectivity profile of the molecules was investigated using a modification of the previously established DNA footprinting assay. Following an overnight incubation of the ligand-DNA complexes, the mixture was mixed with strand separation buffer containing 10 mM EDTA, 10 mM NaOH, 0.1% bromophenol blue, 80% formamide and incubated at 100° C. for 3 min. The mixture was then immediately cooled on ice and run on an 8% denaturing gel.
The preparation of the DS3 DNA fragment (FIG. 5) and the “D” DNA fragment (FIG. 6) has been previously described. Briefly, the sequence which had been cloned into the BamHI site of pUC18 was obtained by cutting with HindIII and EcoRI. Radiolabelled DNA fragments were prepared by filling in the 3′-end of the HindIII site with [α-^32P]dATP using Klenow DNA polymerase (exo-).
The radiolabelled DNA fragment was separated from the remainder of the plasmid DNA on a 6% non-denaturing polyacrylamide gel. The gel (20 cm long, 0.3 mm thick) was run at 400 V in 1×TBE running buffer for about 1-2 h, until the bromophenol blue had run most of the way down the gel. The glass plates were separated and the position of the labelled DNA fragment was established by short (1 min) exposure to an X-ray film. The relevant band was then cut from the gel and the radiolabelled DNA eluted by adding 300 μL 10 mM Tris-HCl, pH 7.5 containing 0.1 mM EDTA and gently agitating overnight at room temperature. The eluted DNA was finally precipitated with ethanol and re-suspended in a suitable volume of 10 mM Tris-HCl, pH 7.5 containing 0.1 mM EDTA buffer so as to give at least 10 counts per second/μL on a hand-held Geiger counter. […]
Footprinting reactions were performed as previously described using the DNA fragments DS3, which contains tracts of AT/GC bases; and using the “D” DNA fragments which represents a random DNA sequence. […] After gel purification, the radiolabelled DNA was dissolved in 10 mM Tris-HCl pH 7.5 containing 0.1 mM EDTA, at a concentration of about 10 c.p.s per μL as determined on a hand held Geiger counter. […]

COc1cc2c(cc1OCCCC(=O)Nc1cc(C(=O)Nc3ccc(-c4cc(C(=O)Nc5ccc(N)cc5)n(C)c4)cc3)n(C)c1)NC[C@@H]1CCCCN1C2=O [Compound 16, (S)—N-(4-Aminophenyl)-4-(4-(4-(4-((2-methoxy-12-oxo-5,6,6a,7,8,9,10,12-octahydrobenzo[e]pyrido[1,2-a][1,4]diazepin-3-yl)oxy)butanamido)-1-methyl-1H-pyrrole-2-carboxamido)phenyl)-1-methyl-1H-pyrrole-2-carboxamide]
IC50 (SW48): 77 nM
DNA binding pattern (footprint) (DS3 DNA fragment; DS3 DNA sequence): predominantly target AT rich regions
DNA-binding site sequence (X any base, W A or T) (DS3 DNA fragment; from DNA footprinting, fragment not stated): XXXXWWW
